Test results as given in the supplement of paper PMC12592484.

Assays:
Assay in all cases: drug sensitivity score (DSS2, normalised partial AUC of dose-response, 72 h CellTiter-Glo viability) (DSS (dimensionless)); higher = more sensitive (stronger growth inhibition / cytotoxicity); extreme values may be limits of the assay
CAF#7 = tested on: CAF#7 (primary prostate cancer-associated fibroblasts of myCAF-like type)
How it was run: (§1)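 In BREEZE, the drug sensitivity score was derived as a partial area under a fitted logistic dose–response curve over the log of that curve's upper asymptote; a higher score marks a more sensitive response. The input came from low-passage primary prostate cancer-associated fibroblasts, PF179T, WPMY-1, LNCaP and 22Rv1 cells, each seeded into 384-well plates with compounds pre-dispensed at five doses spanning a 10,000-fold range. CellTiter-Glo 2.0 luminescence after 72 h gave viability, which was normalized to vehicle and positive-control wells.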

PF179T = tested on: PF179T
How it was run: as §1

WPMY-1 = tested on: WPMY-1
How it was run: as §1

LNCAP = tested on: LNCAP
How it was run: as §1

CAF#6 = tested on: CAF#6 (primary prostate cancer-associated fibroblasts of iCAF-like type)
How it was run: as §1

CAF#3 = tested on: CAF#3 (primary prostate cancer-associated fibroblasts of myCAF-like type)
How it was run: as §1

CAF#4 = tested on: CAF#4 (primary prostate cancer-associated fibroblasts of iCAF-like type)
How it was run: as §1

CAF#1 = tested on: CAF#1 (primary prostate cancer-associated fibroblasts of myCAF-like type)
How it was run: as §1

CAF#2 = tested on: CAF#2 (primary prostate cancer-associated fibroblasts of iCAF-like type)
How it was run: as §1

CAF#5 = tested on: CAF#5 (primary prostate cancer-associated fibroblasts of myCAF-like type)
How it was run: as §1

22Rv1 = tested on: 22Rv1
How it was run: as §1

SMILES	drug sensitivity score (CAF#7)	drug sensitivity score (PF179T)	drug sensitivity score (WPMY-1)	drug sensitivity score (LNCAP)	drug sensitivity score (CAF#6)	drug sensitivity score (CAF#3)	drug sensitivity score (CAF#4)	drug sensitivity score (CAF#1)	drug sensitivity score (CAF#2)	drug sensitivity score (CAF#5)	drug sensitivity score (22Rv1)
C#Cc1cccc(Nc2ncnc3cc(OCCOC)c(OCCOC)cc23)c1 [Erlotinib] (tested concentration range 1-10000 nM)	1.1	1.4	0.5	4	0.2	1.2	4.8	3.7	3.7	4.8	1.4
COc1cc([C@@H]2c3cc4c(cc3[C@@H](O[C@@H]3O[C@@H]5CO[C@@H](C)O[C@H]5[C@H](O)[C@H]3O)[C@H]3COC(=O)[C@H]23)OCO4)cc(OC)c1O [Etoposide] (tested concentration range 1-10000 nM)	5.1	5.8	9	9.9	2.8	2.6	0.9	2.3	5.9	3	10.1
CO[C@H]1C[C@@H]2CC[C@@H](C)[C@@](O)(O2)C(=O)C(=O)N2CCCC[C@H]2C(=O)O[C@H]([C@H](C)C[C@@H]2CC[C@@H](OCCO)[C@H](OC)C2)CC(=O)[C@H](C)/C=C(\C)[C@@H](O)[C@@H](OC)C(=O)[C@H](C)C[C@H](C)/C=C/C=C/C=C/1C [Everolimus] (tested concentration range 0-100 nM)	10.8	6.3	5.4	14.1	8.2	7.2	6.1	11.5	8.2	9.7	11.6
C=C1C[C@@H]2[C@H](CC[C@]3(C)C(=O)CC[C@@H]23)[C@@]2(C)C=CC(=O)C=C12 [Exemestane] (tested concentration range 1-10000 nM)	0	0	0	2.5	0	0.7	0	0	0	0	0
CCn1c(=O)c(-c2ccc(Cl)cc2Cl)cc2cnc(Nc3ccc(N4CCNCC4)c(F)c3)nc21 [FRAX486] (tested concentration range 0.5-5000 nM)	8.9	12.4	8.6	6.3	9	9.1	9.7	12.2	14.7	11.4	1.1
Cc1cnc(Nc2ccc(OCCN3CCCC3)cc2)nc1Nc1cccc(S(=O)(=O)NC(C)(C)C)c1 [Fedratinib] (tested concentration range 1-10000 nM)	9.6	7.7	7.2	8	8	9.7	4.6	3.9	5	5.2	9.5
CON(C)C(=O)N1N=C(c2cc(F)ccc2F)S[C@@]1(CCCN)c1ccccc1 [Filanesib] (tested concentration range 0.1-1000 nM)	2.6	13	22	29.5	2.6	3.2	6	0.2	17.7	3.9	21.3
O=C(Nc1nc2cccc(-c3ccc(CN4CCS(=O)(=O)CC4)cc3)n2n1)C1CC1 [Filgotinib] (tested concentration range 1-10000 nM)	0.6	0.9	2.1	3.8	0.1	1.7	0	2.1	2.3	1.9	2.5
CC(C)(C)NC(=O)[C@H]1CC[C@H]2[C@@H]3CC[C@H]4NC(=O)C=C[C@]4(C)[C@H]3CC[C@]12C [Finasteride] (tested concentration range 1-10000 nM)	0	0	0	2.8	0	0.5	0	0	0	0	0
CCCCCCCCc1ccc(CCC(N)(CO)CO)cc1 [Fingolimod] (tested concentration range 1-10000 nM)	6.3	5.1	6.7	7.9	5.9	5.2	6	5.4	5.3	6.8	7
O=c1[nH]c(=O)n([C@H]2C[C@H](O)[C@@H](CO)O2)cc1F [Floxuridine] (tested concentration range 1-10000 nM)	3	5.1	24	15.2	2.3	1.1	2	1.8	4.3	1.4	6
Nc1nc(F)nc2c1ncn2[C@@H]1O[C@H](CO)[C@@H](O)[C@@H]1O [Fludarabine] (tested concentration range 1-10000 nM)	2.1	4.3	0.7	5.5	0.1	0	0.3	1.5	0.7	2.2	0
